In PMC6017101, “In Silico and In Vitro Study of the Bromelain-Phytochemical Complex Inhibition of Phospholipase A2 (Pla2)” (Molecules : A Journal of Synthetic Chemistry and Natural …, 2018):

Molecular target: T1, porcine group IB phospholipase A2 (pG-IB); Pla2 (Sus scrofa, UniProt P00592)
T1 construct: gene PLA2G1B; commercial enzyme (Sigma-Aldrich); no tag stated
Assay: colorimetric phenol red assay, […] nm, lecithin hydrolysis; median-effect plot
Type: biochemical
Settings: read-out: Dm (mg/mL) ^a (converted)

T1 sequence (P00592 23-146): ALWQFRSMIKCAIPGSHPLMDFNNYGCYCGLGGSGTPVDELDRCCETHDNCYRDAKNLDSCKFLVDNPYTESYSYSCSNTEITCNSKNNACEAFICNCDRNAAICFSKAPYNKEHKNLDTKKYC

IC50 [µM]	Structure (SMILES)
328	C[C@H]1[C@H](C)CC[C@]2(C(=O)O[C@@H]3O[C@H](CO[C@@H]4O[C@H](CO)[C@@H](O[C@@H]5O[C@@H](C)[C@H](O)[C@@H](O)[C@H]5O)[C@H](O)[C@H]4O)[C@@H](O)[C@H](O)[C@H]3O)CC[C@]3(C)C(=CC[C@@H]4[C@@]5(C)C[C@@H](O)[C@H](O)[C@@](C)(CO)[C@@H]5CC[C@]43C)[C@H]12 [asiaticoside]
200	O=c1cc(-c2ccc(O)c(-c3c(O)cc(O)c4c(=O)cc(-c5ccc(O)cc5)oc34)c2)oc2cc(O)cc(O)c12 [amenthoflavone]
2330	C[C@@H]1CC[C@@]2(OC1)O[C@H]1C[C@H]3[C@@H]4CC=C5C[C@@H](O)CC[C@]5(C)[C@H]4CC[C@]3(C)[C@H]1[C@@H]2C [diosgenin]
